Each structure is given as a SMILES string.

The assay relates to Escherichia coli. Briefly: Inhibition of UV-induced mutagenesis in Escherichia coli WP2uvrA. It is filed as functional, organism-based.
The IC50 is the concentration that inhibits the measured activity by half. Higher therefore signals lower potency. Consider `CCOc1cccc(/C=C/C(C)=O)c1O`, for which inhibition was half-maximal at 1200 µM (IC50).
For the molecule `N#Cc1ccc(/C=C/C(=O)C(F)(F)F)cc1`, the 50% inhibitory concentration (IC50) was 25.1 µM.
To `COc1ccc(/C=C/C(=O)C(F)(F)F)cc1` belongs 74.1 µM.
With `O=C(/C=C/c1cccc(Cl)c1)C(F)(F)F` the figure was 24 µM; with `CC(=O)/C=C/c1cccc(C#N)c1`, 282 µM.
With `CC(=O)/C=C/c1ccccc1F` the figure was 339 µM.
Regarding `CC(=O)/C=C/c1cccc(C)c1`, it took 1510 µM to reach half-maximal inhibition (IC50).
With `CC(=O)/C=C/c1cccc([N+](=O)[O-])c1` the figure was 151 µM; with `CC(=O)/C=C/c1ccccc1O`, 229 µM.
With `CC(=O)/C=C/c1ccccc1Cl` the figure was 525 µM; with `CC(=O)/C=C/c1ccc(C)cc1`, 1580 µM; with `COc1ccc(/C=C/C(C)=O)cc1`, 1580 µM.
To `COc1cccc(/C=C/C(C)=O)c1` belongs 708 µM.
Molecule `CC(=O)/C=C/c1ccc(F)cc1` gave an IC50 of 631 µM.
To `CC(=O)/C=C/c1ccccc1Br` belongs 398 µM.
`CC(=O)/C=C/c1ccc([N+](=O)[O-])cc1` had a 50% inhibitory concentration (IC50) of 83.2 µM.
To `CC(=O)/C=C/c1cc(C)c(O)c(C)c1` belongs 1100 µM.
The molecule `CC(=O)/C=C/c1cccc(C(F)(F)F)c1` showed an IC50 of 219 µM.
The molecule `COc1cccc(/C=C/C(C)=O)c1O` had an IC50 of 676 µM.
With `CC(=O)/C=C/c1ccc(Br)cc1` the figure was 525 µM.
With `CC(=O)/C=C/c1cccc(Br)c1` the figure was 407 µM; with `CC(=O)/C=C/c1cccc(F)c1`, 257 µM.
To `O=C(/C=C/c1ccc(Cl)cc1)C(F)(F)F` belongs 15.8 µM.
The molecule `CCc1ccc(/C=C/C(C)=O)cc1` had an IC50 of 1200 µM.
Molecule `CC(=O)/C=C/c1cccc(Cl)c1` had an IC50 of 427 µM.
`O=C(/C=C/c1cccc([N+](=O)[O-])c1)C(F)(F)F` gave an IC50 of 17 µM.
To `CC(=O)/C=C/c1ccc(C(F)(F)F)cc1` belongs 110 µM; to `CC(=O)/C=C/c1cccc(C)c1O`, 240 µM; to `O=C(/C=C/c1ccccc1Cl)C(F)(F)F`, 28.2 µM.
With `CC(=O)/C=C/c1ccc(O)c(O)c1` the figure was 977 µM.
To `O=C(/C=C/c1ccccc1)C(F)(F)F` belongs 30.2 µM; to `N#Cc1cccc(/C=C/C(=O)C(F)(F)F)c1`, 17 µM.
For the molecule `CC(=O)/C=C/c1ccc(Cl)cc1`, half-maximal inhibition (IC50) required 324 µM.
Take `CC(=O)/C=C/c1ccc(C#N)cc1`: the IC50 is 170 µM.
To `CC(=O)/C=C/c1ccc(O)cc1` belongs 1200 µM.
